# Measurements taken from the METLIN SMRT retention time set (Domingo-Almenara et al. 2019).
# Experiment: gradient 5% acetonitrile 3 min, to 50% in 2 min, to 85% in 15 min, held 3 min, 100 µL/min
# Settings: column: Zorbax Extend-C18 2.1 x 50 mm; eluents: water / acetonitrile, 0.1% formic acid
# Method in brief: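 Retention times of pure standards were taken from adduct peaks that were selected by computer and manually inspected. Over 3 months, mixtures of ~100 molecules were run by HPLC–quadrupole time-of-flight mass spectrometry in positive and negative ionization mode. The Zorbax Extend-C18 column (2.1 × 50 mm, 1.8 μm) ran at 100 μL/min in water and acetonitrile, each containing 0.1% formic acid, with 40 μL dead volume and 900 μL dwell volume.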
row,RP-LC retention time [s],SMILES
1,995,Cn1cc(C(=O)NC2CCCCCC2)c2nn(-c3ccccc3)c(=O)c-2c1
2,675,O=C(Nc1ccc(-c2ccc3nnc(-c4ccncc4)n3n2)cc1)c1cccc(Cl)c1
3,773,CCOc1ccc(NS(=O)(=O)c2cc(-c3c(C)noc3NC(C)=O)ccc2OC)cc1
4,774,O=C(c1ccoc1)N1CCC2(CC1)N=C(c1ccc(Cl)cc1)NO2
5,1120,Cc1nc2c(sc3nc(-c4ccccc4)ccc32)c(=O)n1CC(=O)Nc1ccc(Cl)cc1
6,789,CN(C)S(=O)(=O)c1ccc(C(=O)Nc2nnc(-c3cc4ccccc4o3)o2)cc1
7,779,COc1cccc(Cn2cc(S(=O)(=O)N3CCCC3)ccc2=O)c1
8,868,CCOC(=O)COc1cc(-c2ccccc2)nc2ccc(NC(=O)COc3ccc(F)cc3)cc12
9,618,CC(C)(C)NC(=O)N1CCCN(C2CCN(Cc3ccccc3)C2=O)CC1 (stereo not given)
10,933,Cc1ccc(C2=NC3(CCN(C(=O)Cc4ccccc4C)CC3)ON2)cc1
11,1030,O=C(NCc1ccccc1Cl)c1nnc(-c2ccc(S(=O)(=O)N3CCCCC3)cc2)o1
12,879,C[C@@H]1CN(C(=O)c2ccoc2)C[C@H]1c1nc(-c2ccccc2)no1
13,927,CC(C)n1c(=O)n(CC(=O)NC2CCCc3ccccc32)c2cc(S(=O)(=O)N3CCCC3)ccc21 (stereo not given)
14,628,CCCN(Cc1ccc(OC)cc1)Cc1cc(=O)n2ccc(C)cc2n1
15,704,COc1cccc(NC(=O)[C@H]2[C@@H](c3cc(OC)c(OC)c(OC)c3)c3cc4c(cc3[C@@H](O)[C@@H]2CO)OCO4)c1
16,611,O=C(c1cc(-c2ccncc2)n[nH]1)N1CCC(C(=O)N2CCN(c3ccc(F)cc3)CC2)CC1
17,951,CCCCCNC(=O)C1CCN(c2cc(Sc3cc(C)ccc3C)ncn2)CC1
18,910,Cc1cccc(N2CCN(C3=NC(=O)C(Cc4ccccc4)S3)CC2)c1 (stereo not given)
19,908,COc1ccccc1NC(=O)Cn1nc2c(Oc3ccccc3Cl)nccn2c1=O
20,1130,CCOC(=O)c1noc2nc(C)nc(Nc3ccc(OCC)cc3)c12
21,960,Cc1ccc(NC(=O)C2CCCN(c3ccc(=O)n(-c4cccc(Cl)c4)n3)C2)cc1C (stereo not given)
22,924,O=C(NCCC1=CCCCC1)C1CCN(Cc2cc3ccccc3n2Cc2ccccc2Cl)CC1

row,RP-LC retention time [s],SMILES
1,767,CC(C(=O)NCc1ccco1)C1CCN(C(=O)c2cc3ccccc3[nH]2)CC1 (stereo not given)
2,1030,CCn1nnc2ccc(-c3noc(Cc4ccccc4C)n3)cc21
3,862,O=C(Nc1ccccc1)c1cccc(N2CC(C(=O)NC3CCCCCC3)CC2=O)c1 (stereo not given)
4,615,COc1ccc(-c2ccc(N3CCN(C(=O)c4cnc5ccccc5n4)CC3)nn2)cc1
5,712,O=c1ccc(-c2ccc(F)cc2)nn1CCc1nc(-c2ccc(F)cc2)no1
6,708,CC(=O)Nc1ccc2nc(NC(=O)CCOc3ccccc3)sc2c1
7,927,O=C([C@@H]1C[C@H](F)CN1S(=O)(=O)c1cccc(Cl)c1)N1CCc2ccccc2C1
8,704,O=C(CN1CCN(C(=O)c2ccco2)CC1)Nc1cc(Cl)ccc1Cl
9,618,COc1ccc(N2CCN(c3nc(C(=O)NCCN(C)C)cs3)CC2)cc1
10,832,COc1ccc(-c2cc(=O)c3cc(OC(=O)c4ccncc4)ccc3o2)cc1
11,717,Cc1ccn2c(Nc3ccc4c(c3)OCCO4)c(-c3ccc(Cl)cc3)nc2c1
12,778,Cc1ccc(CNC2=NCCNC23CCN(S(=O)(=O)c2ccc(Cl)cc2)CC3)cc1
13,657,O=C(Nc1ccc(N2CCCCCC2)c(C(=O)O)c1)c1cccs1
14,978,O=C(NCc1cccc(Br)c1)C1CCCN(C(=O)Cc2cccc3ccccc23)C1 (stereo not given)
15,654,COc1ccc(C2(C(=O)N3CCC(Cc4ncc(C)n4CC4CC4)C3)CC2)cc1 (stereo not given)
16,633,CCOCCCNC(=O)C1CCN(c2ncnc3c2oc2ccccc23)CC1
17,717,COc1ccc(NC(=O)Cn2nc3nc(N4CCCC(C)C4)ccn3c2=O)cc1Cl (stereo not given)
18,690,CCCCCNC(=O)c1cn(-c2ccc(NC(C)=O)cn2)cn1
19,833,Cc1ccc(-n2nc(N3CCN(C(=O)Nc4ccccc4Cl)CC3)ccc2=O)cc1
20,1130,CCCNC(=O)c1sc(-n2nc(C)c(Cl)c2C)nc1C
21,807,Cc1ccc(CNC(=O)C2(C)CN(S(C)(=O)=O)CC(=O)N2c2ccc(C)c(C)c2)cc1 (stereo not given)
22,1140,Cc1cccc2sc(NC(=O)Cc3csc(Nc4ccc(Cl)cn4)n3)nc12

row,RP-LC retention time [s],SMILES
1,941,CCCCN(CC)c1nc(-c2ccc(C)cc2)nc2ccccc12
2,618,CCCn1nc(C)cc1CN(C)c1ccc(NC(=O)CC)cc1C(=O)O
3,733,O=C(Nc1ccc(NC(=O)N2CCC(C(=O)NCC3CC3)CC2)cc1)NC1CCCCC1
4,645,CN(C)CCN(Cc1ccccc1)C(=O)Cn1c(=O)oc2ccccc21
5,832,Cc1ccc(C)c(N2CCN(C(=O)C3CCN(S(=O)(=O)c4cn(C)cn4)CC3)CC2)c1
6,791,O=C(Nc1cc(-c2ccccn2)no1)c1cccc(F)c1
7,948,O=C(Nc1ccc(Cl)c(C(F)(F)F)c1)C1CCN(C(=O)C2Sc3ccccc3NC2=O)CC1 (stereo not given)
8,814,CCc1cc(C(=O)N2CCN(c3ccccc3)CC2)nc2ccnn12
9,627,Cc1ccc2nc(CN(C)Cc3ccc(Cl)cc3)cc(=O)n2c1
10,709,COc1ccc(OC)c(Nc2c(-c3ccc(C(=O)O)cc3)nc3cnccn23)c1
11,652,O=C(O)c1cn(-c2cccc(F)c2)nn1
12,661,COc1ccc(NC(=O)Cn2c(N3CCCCC3)nc(C)cc2=O)cc1
13,676,COc1ccc(C2CC(=O)c3c(C)nc(N4CCN(c5ccccn5)CC4)nc3C2)cc1OC (stereo not given)
14,1320,CCOc1ccccc1NC(=O)c1csc2c1CCC(C)C2 (stereo not given)
15,764,O=C(NC1CCN(c2ccc(F)cc2)C1=O)c1ccc2c(c1)OCO2 (stereo not given)
16,646,CCOC(=O)c1ccc(NC(=O)CCc2ccc3nc(CC)[nH]c3c2)cc1
17,1200,Cc1ccc(-c2noc(-c3cccc(S(=O)(=O)Nc4ccccc4)c3)n2)cc1
18,987,Fc1cc(F)cc(-c2nnc(Cc3nc(-c4ccc5c(c4)OCO5)no3)o2)c1
19,729,CC(=O)c1ccc(NS(=O)(=O)c2ccccc2[N+](=O)[O-])cc1
20,599,O=C(C1CCN(c2nnc3ccc(Cl)cn23)CC1)N1CCOCC1
21,994,O=C(NCCc1csc(-c2ccccc2)n1)[C@H]1CCCN1S(=O)(=O)c1cccc(Cl)c1
